Source: US8652999B1, “Herbicidal compositions comprising 4-amino-3-chloro-5-fluoro-6-(4-chloro-2-fluoro-3-methoxyphenyl)pyridine-2-carboxylic acid or a derivative thereof and a sulfonylaminocarbonyltriazolinone” (Dow AgroSciences, LLC., priority 2012, dated 2014)

Assays:
Type in all cases: in vivo
[1] = system: Apera spica-venti (APESV); experiment: Postemergence herbicidal activity, greenhouse, APESV; conditions: foliar, 20-22 days
Protocol: (§1) Evaluation of Postemergence Herbicidal Activity of Mixtures in Cereal Crops
(§2) Seeds of the desired test plant species were planted in Sun Gro MetroMix® 306 planting mixture, which typically has a pH of 6.0 to 6.8 and an organic matter content of about 30 percent, in plastic pots with a surface area of 103.2 square centimeters (cm^2). […] The plants were grown for 7-36 days in a greenhouse with an approximate 14 hour photoperiod which was maintained at about 18° C. during the day and 17° C. during the night. Nutrients and water were added on a regular basis and supplemental lighting was provided with overhead metal halide 1000-Watt lamps as necessary. The plants were employed for testing when they reached the second or third true leaf stage.
(§3) Treatments consisted of the benzyl ester of the compound of formula (I) (Compound A as listed in Tables 1-8) and a second cereal herbicide alone and in combination. […] The concentrated stock solutions were diluted to 1.5 mg ai/mL with the addition of 2 volumes of an aqueous mixture containing acetone, water, isopropyl alcohol, DMSO, Agri-dex crop oil concentrate, and Triton® X-77 surfactant in a 64.7:26.0:6.7:2.0:0.7:0.01 v/v ratio. A dilution solution was prepared by mixing 1 volume of 97:3 v/v acetone/DMSO and 2 volumes of an aqueous mixture containing acetone, water, isopropyl alcohol, DMSO, Agri-dex crop oil concentrate, and Triton® X-77 surfactant in a 64.7:26.0:6.7:2.0:0.7:0.01 v/v ratio. Compound requirements are based upon a 12 mL application volume at a rate of 187 liters per hectare (L/ha). […] Formulated compounds were applied to the plant material with an overhead Mandel track sprayer equipped with 8002E nozzles calibrated to deliver 187 L/ha over an application area of 0.503 square meters (m^2) at a spray height of 18 inches (43 cm) above average plant canopy. Control plants were sprayed in the same manner with the solvent blank.
(§4) The treated plants and control plants were placed in a greenhouse as described above and watered by sub-irrigation to prevent wash-off of the test compounds. After 20-22 days, the condition of the test plants as compared with that of the control plants was determined visually and scored on a scale of 0 to 100 percent where 0 corresponds to no injury and 100 corresponds to complete kill.
(§5) Colby's equation was used to determine the herbicidal effects expected from the mixtures (Colby, S. R. 1967. Calculation of the synergistic and antagonistic response of herbicide combinations. Weeds 15:20-22.). Specifically, the following equation was used to calculate the expected activity of mixtures containing two active ingredients, A and B: Expected=A+B−(A×B/100) • A=observed efficacy of active ingredient A at the same concentration as used in the mixture. • B=observed efficacy of active ingredient B at the same concentration as used in the mixture.

Papaver rhoeas (PAPRH) = experiment: Postemergence herbicidal activity, greenhouse, PAPRH; conditions: foliar, 20-22 days
Protocol: as §1, §2, §3, §4, §5

Salsola tragus (SASKR) = experiment: Postemergence herbicidal activity, greenhouse, SASKR; conditions: foliar, 20-22 days
Protocol: as §1, §2, §3, §4, §5

Viola tricolor (VIOTR) = experiment: Postemergence herbicidal activity, greenhouse, VIOTR; conditions: foliar, 20-22 days
Protocol: as §1, §2, §3, §4, §5

[2] = system: Matricaria chamomila (MATCH); experiment: Postemergence herbicidal activity, greenhouse, MATCH; conditions: foliar, 20-22 days
Protocol: as §1, §2, §3, §4, §5

[3] = system: Alopecurus myosuroides (ALOMY); experiment: Postemergence herbicidal activity, greenhouse, ALOMY; conditions: foliar, 20-22 days
Protocol: as §1, §2, §3, §4, §5

Stellaria media (STEME) = experiment: Postemergence herbicidal activity, greenhouse, STEME; conditions: foliar, 20-22 days
Protocol: as §1, §2, §3, §4, §5

Cirsium arvense (CIRAR) = experiment: Postemergence herbicidal activity, greenhouse, CIRAR; conditions: foliar, 20-22 days
Protocol: as §1, §2, §3, §4, §5

[4] = system: Triticum aestivum (TRZAW); experiment: Postemergence herbicidal activity, greenhouse, TRZAW; conditions: foliar, 20-22 days
Protocol: as §1, §2, §3, §4, §5

Veronica persica (VERPE) = experiment: Postemergence herbicidal activity, greenhouse, VERPE; conditions: foliar, 20-22 days
Protocol: as §1, §2, §3, §4, §5

[5] = system: Lolium multiflorum subsp. gaudini (LOLMG); experiment: Postemergence herbicidal activity, greenhouse, LOLMG; conditions: foliar, 20-22 days
Protocol: as §1, §2, §3, §4, §5

Setaria viridis (SETVI) = experiment: Postemergence herbicidal activity, greenhouse, SETVI; conditions: foliar, 20-22 days
Protocol: as §1, §2, §3, §4
(§6) Colby's equation was used to determine the herbicidal effects expected from the mixtures (Colby, S. R. 1967. Calculation of the synergistic and antagonistic response of herbicide combinations. Weeds 15:20-22.). […]

Kochia scoparia (KCHSC) = experiment: Postemergence herbicidal activity, greenhouse, KCHSC; conditions: foliar, 20-22 days
Protocol: as §1, §2, §3, §4, §5

Lamium purpureum (LAMPU) = experiment: Postemergence herbicidal activity, greenhouse, LAMPU; conditions: Propoxycarbazone-Na 15 g/ha; foliar; 20-22 days
Protocol: as §1, §2, §3, §4, §6

[6] = Propoxycarbazone-Na 7.5 g ai/ha

COc1nn(C(=O)NS(=O)(=O)c2ccccc2OC(F)(F)F)c(=O)n1C [Flucarbazone-Na, 4,5-dihydro-3-methoxy-4-methyl-5-oxo-N-[[2-(trifluoromethoxy)phenyl]sulfonyl]-1H-1,2,4-triazole-1-carboxamide]
APESV Obs ([1]; Flucarbazone-Na 3.75 g/ha): 33%
APESV Obs ([1]; Flucarbazone-Na 7.5 g/ha): 75%
PAPRH Obs (Papaver rhoeas (PAPRH); Flucarbazone-Na 3.75 g ai/ha): 0%
PAPRH Obs (Papaver rhoeas (PAPRH); Flucarbazone-Na 7.5 g ai/ha): 0%
SASKR Obs (Salsola tragus (SASKR); Flucarbazone-Na 3.75 g ai/ha): 10%
SASKR Obs (Salsola tragus (SASKR); Flucarbazone-Na 7.5 g ai/ha): 7%
VIOTR Obs (Viola tricolor (VIOTR); Flucarbazone-Na 3.75 g ai/ha): 7%
VIOTR Obs (Viola tricolor (VIOTR); Flucarbazone-Na 7.5 g ai/ha): 7%
MATCH Obs ([2]; Flucarbazone-Na 3.75 g ai/ha): 10%
MATCH Obs ([2]; Flucarbazone-Na 7.5 g ai/ha): 10%
MATCH Obs ([2]; Flucarbazone-Na 7.5 g/ha): 30%
ALOMY Obs ([3]; Flucarbazone-Na 3.75 g/ha): 8%
ALOMY Obs ([3]; Flucarbazone-Na 7.5 g/ha): 17%
STEME Obs (Stellaria media (STEME); Flucarbazone-Na 3.75 g ai/ha): 3%
STEME Obs (Stellaria media (STEME); Flucarbazone-Na 7.5 g ai/ha): 7%
STEME Obs (Stellaria media (STEME); Flucarbazone-Na 7.5 g/ha): 60%
CIRAR Obs (Cirsium arvense (CIRAR); Flucarbazone-Na 7.5 g/ha): 50%
TRZAW Obs ([4]; Flucarbazone-Na 3.75 g ai/ha): 2%
TRZAW Obs ([4]; Flucarbazone-Na 7.5 g ai/ha): 7%
VERPE Obs (Veronica persica (VERPE); Flucarbazone-Na 3.75 g ai/ha): 0%
VERPE Obs (Veronica persica (VERPE); Flucarbazone-Na 7.5 g ai/ha): 0%
VERPE Obs (Veronica persica (VERPE); Flucarbazone-Na 7.5 g/ha): 0%
LOLMG Obs ([5]; Flucarbazone-Na 3.75 g/ha): 0%
LOLMG Obs ([5]; Flucarbazone-Na 7.5 g/ha): 0%

CCCOc1nn(C(=O)NS(=O)(=O)c2ccccc2C(=O)OC)c(=O)n1C [Propoxycarbazone-Na, methyl 2-[[[(4,5-dihydro-4-methyl-5-oxo-3-propoxy-1H-1,2,4-triazol-1-yl)-carbonyl]amino]sulfonyl]benzoate]
APESV Obs ([1]; Propoxycarbazone-Na 7.5 g ha): 17%
APESV Obs ([1]; Propoxycarbazone-Na 15 g ha): 23%
PAPRH Obs (Papaver rhoeas (PAPRH); [6]): 18%
PAPRH Obs (Papaver rhoeas (PAPRH); Propoxycarbazone-Na 15 g ai/ha): 23%
VIOTR Obs (Viola tricolor (VIOTR); [6]): 13%
VIOTR Obs (Viola tricolor (VIOTR); Propoxycarbazone-Na 15 g ai/ha): 23%
SETVI Obs (Setaria viridis (SETVI); Propoxycarbazone-Na 7.5 g ha): 0%
SETVI Obs (Setaria viridis (SETVI); Propoxycarbazone-Na 15 g ha): 0%
MATCH Obs [2, 6]: 13%
MATCH Obs ([2]; Propoxycarbazone-Na 15 g ai/ha): 20%
ALOMY Obs ([3]; Propoxycarbazone-Na 7.5 g ha): 10%
ALOMY Obs ([3]; Propoxycarbazone-Na 15 g ha): 43%
STEME Obs (Stellaria media (STEME); [6]): 12%
STEME Obs (Stellaria media (STEME); Propoxycarbazone-Na 15 g ai/ha): 10%
STEME Obs (Stellaria media (STEME); Propoxycarbazone-Na 15 g/ha): 45%
CIRAR Obs (Cirsium arvense (CIRAR); Propoxycarbazone-Na 15 g/ha): 65%
KCHSC Obs (Kochia scoparia (KCHSC); [6]): 13%
KCHSC Obs (Kochia scoparia (KCHSC); Propoxycarbazone-Na 15 g ai/ha): 25%
TRZAW Obs [4, 6]: 8%
TRZAW Obs ([4]; Propoxycarbazone-Na 15 g ai/ha): 5%
LOLMG Obs ([5]; Propoxycarbazone-Na 7.5 g ha): 3%
LOLMG Obs ([5]; Propoxycarbazone-Na 15 g ha): 20%
LAMPU Obs (Lamium purpureum (LAMPU)): 0%
